In PubChem BioAssay AID2060488 (Molecular Pharmacology Branch, DTP, NCI, 2025):

System: 966289-007-R4-J1-PDC complex spheroid viability
Assay: Anticancer human tumor 966289-007-R4-J1-PDC patient-derived pancreatic adenocarcinoma cell line growth inhibition [GQUAD]
Settings: for IC50: curve of first compound; for viability, T/C: stronger effect = lower value
Summary of the method: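 Multi-cell-type spheroids of tumor cells with HUVEC and mesenchymal stem cells, treated with drug combinations. Concentrations descend in half-log steps from near clinical Cmax, or from 10 microM where Cmax is unknown; viability read-out.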

[1] = second compound 0.0316 µM, first compound 0.0316 µM
[2] = second compound 0.0316 µM, first compound 0.1 µM
[3] = second compound 0.0316 µM, first compound 0.316 µM
[4] = second compound 0.0316 µM, first compound 1 µM
[5] = second compound 0.0316 µM, first compound 3.16 µM
[6] = second compound 0.0316 µM, first compound 10 µM
[7] = second compound 0.1 µM, first compound 0.0316 µM
[8] = second compound 0.1 µM, first compound 0.1 µM
[9] = second compound 0.1 µM, first compound 0.316 µM
[10] = second compound 0.1 µM, first compound 1 µM
[11] = second compound 0.1 µM, first compound 3.16 µM
[12] = second compound 0.1 µM, first compound 10 µM
[13] = second compound 0.316 µM, first compound 0.0316 µM
[14] = second compound 0.316 µM, first compound 0.1 µM
[15] = second compound 0.316 µM, first compound 0.316 µM
[16] = second compound 0.316 µM, first compound 1 µM
[17] = second compound 0.316 µM, first compound 3.16 µM
[18] = second compound 0.316 µM, first compound 10 µM
[19] = second compound 1 µM, first compound 0.0316 µM
[20] = second compound 1 µM, first compound 0.1 µM
[21] = second compound 1 µM, first compound 0.316 µM
[22] = second compound 1 µM, first compound 1 µM
[23] = second compound 1 µM, first compound 3.16 µM
[24] = second compound 1 µM, first compound 10 µM
[25] = second compound 3.16 µM, first compound 0.0316 µM
[26] = second compound 3.16 µM, first compound 0.1 µM
[27] = second compound 3.16 µM, first compound 0.316 µM
[28] = second compound 3.16 µM, first compound 1 µM
[29] = second compound 3.16 µM, first compound 3.16 µM
[30] = second compound 3.16 µM, first compound 10 µM
[31] = second compound 10 µM, first compound 0.0316 µM
[32] = second compound 10 µM, first compound 0.1 µM
[33] = second compound 10 µM, first compound 0.316 µM
[34] = second compound 10 µM, first compound 1 µM
[35] = second compound 10 µM, first compound 3.16 µM
[36] = second compound 10 µM, first compound 10 µM
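Further: spheroids exposed to the agents for seven days before readout.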
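Wherever viability, T/C is given: percent viability relative to DMSO vehicle control wells taken as 100%.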

CC(C)n1c(=O)n(C)c2cnc3cc(F)c(-c4ccc(OCCCN5CCCCC5)nc4)cc3c21 + Cc1cnc(CNC(=O)c2c(=O)c3ccc(N4CCCN(C)CC4)nc3n3c2sc2ccccc23)cn1
IC50 (second compound 0.0316 µM): < 31.6 nM
IC50 (second compound 0.1 µM): < 31.6 nM
IC50 (second compound 0.316 µM): < 31.6 nM
IC50 (second compound 1 µM): < 31.6 nM
IC50 (second compound 3.16 µM): < 31.6 nM
IC50 (second compound 10 µM): < 31.6 nM
viability, T/C [1]: 36.8%
viability, T/C [2]: 18.8%
viability, T/C [3]: 21.1%
viability, T/C [4]: 15.4%
viability, T/C [5]: 33.4%
viability, T/C [6]: 31.6%
viability, T/C [7]: 10.5%
viability, T/C [8]: 7.68%
viability, T/C [9]: 8.96%
viability, T/C [10]: 9.72%
viability, T/C [11]: 12.6%
viability, T/C [12]: 17.9%
viability, T/C [13]: 6.19%
viability, T/C [14]: 6.34%
viability, T/C [15]: 5.97%
viability, T/C [16]: 6.08%
viability, T/C [17]: 7.07%
viability, T/C [18]: 8.93%
viability, T/C [19]: 3.82%
viability, T/C [20]: 4.77%
viability, T/C [21]: 3.79%
viability, T/C [22]: 4.54%
viability, T/C [23]: 5.48%
viability, T/C [24]: 5.76%
viability, T/C [25]: 1.67%
viability, T/C [26]: 2.31%
viability, T/C [27]: 1.96%
viability, T/C [28]: 2.66%
viability, T/C [29]: 3.94%
viability, T/C [30]: 3%
viability, T/C [31]: 0.09%
viability, T/C [32]: 0.12%
viability, T/C [33]: 0.27%
viability, T/C [34]: 0.16%
viability, T/C [35]: 0.16%
viability, T/C [36]: 0.15%

CC1COCCN1c1cc(-c2ccnn2C)c2ccnc(-c3ccn[nH]3)c2n1 (stereo not drawn) + Cc1cnc(CNC(=O)c2c(=O)c3ccc(N4CCCN(C)CC4)nc3n3c2sc2ccccc23)cn1
IC50 (second compound 0.0316 µM): < 31.6 nM
IC50 (second compound 0.1 µM): < 31.6 nM
IC50 (second compound 0.316 µM): < 31.6 nM
IC50 (second compound 1 µM): < 31.6 nM
IC50 (second compound 3.16 µM): < 31.6 nM
IC50 (second compound 10 µM): < 31.6 nM
viability, T/C [1]: 24.3%
viability, T/C [2]: 6.05%
viability, T/C [3]: 4.12%
viability, T/C [4]: 4.23%
viability, T/C [5]: 3.36%
viability, T/C [6]: 2.9%
viability, T/C [7]: 6.63%
viability, T/C [8]: 3.84%
viability, T/C [9]: 4.03%
viability, T/C [10]: 4.94%
viability, T/C [11]: 3.73%
viability, T/C [12]: 3.29%
viability, T/C [13]: 7.42%
viability, T/C [14]: 5.9%
viability, T/C [15]: 5.46%
viability, T/C [16]: 5.36%
viability, T/C [17]: 3.91%
viability, T/C [18]: 3.35%
viability, T/C [19]: 5.44%
viability, T/C [20]: 5.41%
viability, T/C [21]: 6.4%
viability, T/C [22]: 6.38%
viability, T/C [23]: 5.26%
viability, T/C [24]: 3.91%
viability, T/C [25]: 3.88%
viability, T/C [26]: 3.62%
viability, T/C [27]: 4.85%
viability, T/C [28]: 5.21%
viability, T/C [29]: 6.21%
viability, T/C [30]: 4.16%
viability, T/C [31]: 0.03%
viability, T/C [32]: 0.07%
viability, T/C [33]: 0.1%
viability, T/C [34]: 0.08%
viability, T/C [35]: 0.11%
viability, T/C [36]: 0.15%

CC1COCCN1c1cc(C2(S(C)(=N)=O)CC2)nc(-c2ccnc3[nH]ccc23)n1 (stereo not drawn) + Cc1cnc(CNC(=O)c2c(=O)c3ccc(N4CCCN(C)CC4)nc3n3c2sc2ccccc23)cn1
IC50 (second compound 0.0316 µM): 2700 nM
IC50 (second compound 0.1 µM): < 31.6 nM
IC50 (second compound 0.316 µM): < 31.6 nM
IC50 (second compound 1 µM): < 31.6 nM
IC50 (second compound 3.16 µM): < 31.6 nM
IC50 (second compound 10 µM): < 31.6 nM
viability, T/C [1]: 119%
viability, T/C [2]: 108%
viability, T/C [3]: 107%
viability, T/C [4]: 44.5%
viability, T/C [5]: 68.7%
viability, T/C [6]: 3.76%
viability, T/C [7]: 42.7%
viability, T/C [8]: 34.2%
viability, T/C [9]: 20.3%
viability, T/C [10]: 11.8%
viability, T/C [11]: 15.3%
viability, T/C [12]: 4.26%
viability, T/C [13]: 16.7%
viability, T/C [14]: 13.1%
viability, T/C [15]: 12.2%
viability, T/C [16]: 8.4%
viability, T/C [17]: 11.7%
viability, T/C [18]: 3.59%
viability, T/C [19]: 7.28%
viability, T/C [20]: 8.94%
viability, T/C [21]: 8.19%
viability, T/C [22]: 6.87%
viability, T/C [23]: 8.21%
viability, T/C [24]: 2.84%
viability, T/C [25]: 5.74%
viability, T/C [26]: 6.34%
viability, T/C [27]: 6.62%
viability, T/C [28]: 5.33%
viability, T/C [29]: 6.14%
viability, T/C [30]: 2.86%
viability, T/C [31]: 0.15%
viability, T/C [32]: 0.14%
viability, T/C [33]: 0.19%
viability, T/C [34]: 0.18%
viability, T/C [35]: 0.19%
viability, T/C [36]: 0.16%

O=C(c1cc(Cc2n[nH]c(=O)c3ccccc23)ccc1F)N1CCN(C(=O)C2CC2)CC1 + Cc1cnc(CNC(=O)c2c(=O)c3ccc(N4CCCN(C)CC4)nc3n3c2sc2ccccc23)cn1
IC50 (second compound 0.0316 µM): 1380 nM
IC50 (second compound 0.1 µM): < 31.6 nM
IC50 (second compound 0.316 µM): < 31.6 nM
IC50 (second compound 1 µM): < 31.6 nM
IC50 (second compound 3.16 µM): < 31.6 nM
IC50 (second compound 10 µM): < 31.6 nM
viability, T/C [1]: 113%
viability, T/C [2]: 106%
viability, T/C [3]: 98.9%
viability, T/C [4]: 58.9%
viability, T/C [5]: 23.3%
viability, T/C [6]: 4.08%
viability, T/C [7]: 33.8%
viability, T/C [8]: 26%
viability, T/C [9]: 22%
viability, T/C [10]: 17.1%
viability, T/C [11]: 8.17%
viability, T/C [12]: 4.33%
viability, T/C [13]: 13.5%
viability, T/C [14]: 11%
viability, T/C [15]: 9.09%
viability, T/C [16]: 7.84%
viability, T/C [17]: 3.87%
viability, T/C [18]: 2.13%
viability, T/C [19]: 5.15%
viability, T/C [20]: 5.03%
viability, T/C [21]: 4.87%
viability, T/C [22]: 4.62%
viability, T/C [23]: 3%
viability, T/C [24]: 1.77%
viability, T/C [25]: 3.25%
viability, T/C [26]: 5.08%
viability, T/C [27]: 3.5%
viability, T/C [28]: 2.42%
viability, T/C [29]: 0.47%
viability, T/C [30]: 0.13%
viability, T/C [31]: 0.11%
viability, T/C [32]: 0.34%
viability, T/C [33]: 0.18%
viability, T/C [34]: 0.14%
viability, T/C [35]: 0.16%
viability, T/C [36]: 0.58%
